Experimental data as given in US12589088B2, “Compositions and methods for treating cancer with andrographolide and melatonin combination therapy” (University of Maryland, Baltimore, priority 2020, dated 2026).
Where two headings read alike, the source gives them in different places.

Legend:
[1] = biological target: Ki-67 in patient derived organoids (PDOD); experiment: Ki-67 immunofluorescence in patient derived organoids; type: cell-based, human; details: AGP 15 μM, MLT 0.5 mM or both, 48 h; vs untreated
Protocol: Organoid cells were generated from stage 3 metastatic cancer tissue and cultured as previously described (Blanchard et al., Cell Physiol Biochem, (2018), 48(3):1259-1273; Banerjee et al., Gastroenterology and Hepatology International Journal, (2017), 2(2):1-2; Blanchard et al., Cancers (Basel), (2019), 11(2)). The cultures were passaged when the aggregates reached a diameter of approximately 800 μm. Organoids were treated with 15 μM AGP, 0.5 mM MLT, or both for 48 h. Treated and untreated organoids were subjected to morphological analysis and immunofluorescence for Ki67 expression.
Patient derived organoids were grown in 1:1 mixture of Matrigel and advanced DMEM:F12 (Life Technologies) supplemented with 1× penicillin/streptomycin, lx glutamine, 1×N2, 1×B27, 1 mM N-acetyl-L-cysteine, 20 ng/ml fibroblast growth factor and 50 ng/ml epidermal growth factor at 37° C. on a 4-chambered glass slide. […]
Fluorescence microscopy and colony counting were performed using an inverted fluorescence microscope (Olympus IX-71, Pennsylvania, USA). […] Fluorescence intensity was quantified using ImageJ software version 1.39 (NIH). RGB composite images from control and treated groups were created using Axion Vision rel, 4.6 and analyzed. […]

[2] = test system: HT-29 and HCT-15 cells; experiment: MTT cell viability assay, one value given for both cell lines; type: cell-based, human; details: for IC50: Homo sapiens
Protocol: (§1) Cell cytotoxicity in the presence or absence of AGP and MLT was assessed using the MTT (Sigma Aldrich) assay as previously described (Banerjee et al., Helicobacter, (2016), 21(5):395-404). Cells (1×10^4) were plated in phenol-free complete RPMI media and incubated at 37° C. under 5% CO2 for 24 h. Cells were then simultaneously treated in quadruplicate wells with AGP (0-150 μM), MLT (0-3000 μM) or vehicle controls (0.1% DMSO). The media was replaced with MTT solution for each plate at its respective timepoint (either 24, 48, 72 h) followed by the addition of DMSO to dissolve the formazan crystals. Absorbance at 570 nm was determined using a microplate reader (Model 550, Bio-Rad, USA). The percent cell viability relative to the vehicle control was calculated using the following equation:
(§2) [formula] The IC50 value and slope (m) of the concentration-response curves were calculated using the CompuSyn software developed by Chou and Martin (Tun et al., Mar Drugs, (2019), 17(9): 10.3390/md17090536). Colospheroid Formation Assay
(§3) To determine an upper bound on both the individual doses drugs, we measured maximum cell death (near 0% cell viability). AGP achieved this level at 150 μM and MLT at 3 mM for 48 h (Banerjee et al., Helicobacter, (2016), 21(5):395-404, Reiter et al., Int J Mol Sci, (2017), 18(4), doi: 10.3390/ijms18040843). […] Serial dilution was conducted up to 6 times to anchor the observed cell deaths along the dose range.
(§4) To understand the Combination Index (CI), we first defined the fraction affected (Fa) and its counterpart, fraction unaffected (Fu). In our case, the percentage of viable cells determines the […], and 100—percentage of viable cells determines the Fu. The dose effect curve provides an overview of Fa vs. Dose (FIG. 2A and FIG. 2B). As expected, the individual AGP and MLT dose effect curves cradle the combinational dose effect curve below and above, respectively. This means that the total combinational dose to achieve the same Fa is greater than AGP's dose and less than MLT's dose. However, due to the 1:20 combinational ratio, we require less AGP and MLT absolutely.
(§5) [formula] The ratio between Fa and Fu aids in understanding when a given dose achieves the IC50 value. At 50% cell viability,
(§6) [formula] To linearly scale the datapoints, we also took the log of Dose. In this manner, the x intercept of the Median-Effect plot—also known as Dm—precisely determines the dose required to achieve the IC50 value. Immunoblotting

[3] = test system: IRE-1, ATF6, CHOP mRNA; experiment: qRT-PCR of ER stress associated genes in HT-29 and HCT-15 cells; type: cell-based, human; details: 5-FU at IC50 dose; for CHOP mRNA expression: AGP 9.3 μM, MLT 0.18 mM alone or combined, 48 h, both cell lines
Protocol: (§7) FIG. 5. AGP and MLT synergistically induce ER stress-related molecules. HT-29 and HCT-15 cells were treated with AGP, MLT, AGP+MLT, and 5-FU for 48 h as indicated in the methodology section. Transcriptional level of expression of ER stress associated genes was determined by qRT-PCR for A. IRE-1, B. ATF6, and C. CHOP. Bar graphs show quantitative results normalized to GAPDH mRNA levels. Results are from three independent experiments. D. Treated and untreated cells were lysed, and protein expression was determined by immunoblotting for IRE-1, ATF6, phospho-PERK, and GAPDH.
(§8) Gene expression was evaluated as previously described (Banerjee et al., Oncotarget, (2016), 7(27):41432-41444). Primer sequences are listed in Supplementary Table 1. Relative gene expression changes were calculated using the 2^−ΔΔCT method, and expression normalization was accomplished using the housekeeping gene, GAPDH.

[4] = test system: HT-29 cells; experiment: MTT cell viability assay with CompuSyn / Chou-Talalay combination index analysis; type: cell-based, human; details: for IC50: Homo sapiens, HT-29, 48 h, median-effect plot, combination = total dose at 1:20, read-out: Dm values for HT-29
Protocol: as §1, §2, §3, §4, §5, §6

[5] = test system: HCT-15 cells; experiment: as above; type: cell-based, human; details: for IC50: Homo sapiens, HCT-15, 48 h, median-effect plot, combination = total dose at 1:20, read-out: Dm values for HCT-15
Protocol: as §1, §2, §3, §4, §5, §6

[6] = test system: T84 and Colo 205; details: cited from earlier work
[7] = test system: Cyclin B1, Prx, Trx; details: T84 and Colo 205 cell lysates, earlier publication; cited from earlier work
[8] = test system: FoxM1 and phospho-VEGF receptor1 protein; experiment: Immunoblotting of angiogenic markers in HT-29 and HCT-15 cell lysates; type: cell-based, human; details: vs untreated and single compound groups
Protocol: (§9) FIG. 6. AGP and MLT synergistically downregulates angiogenic signaling molecules in colon cancer cells. HT-29 (left) and HCT-15 (right) cells were analyzed for A. VEGF165, B. VEGF189, C. VEGF receptor1, D. FoxM1, E. PTTG1 mRNA expression in the presence and absence of AGP, MLT and 5-FU. F. HT-29 and HCT-15 cell lysates were subjected for protein expression as indicated. (G-H). Quantification of FoxM1 was normalized with GAPDH and (I-J). p-VEGF receptor1 was normalized with total VEGF receptor 1. Statistical significance was determined using one-way ANOVA followed Bonferroni test (*P<0.05, **P<0.01, ***P<0.001).
(§10) Immunoblotting was performed as previously described (Banerjee, Basu, et al. 2016). The primary antibodies used were against ATF6 (#MA5-16172; Thermo Fisher Scientific) phospho-PERK (Thr 981) (#sc-32577; Santa Cruz biotechnology), IRE-1 (#3294S; Cell Signaling), phospho-VEGFReceptor1/Flt-1 (Y1213) (#AF4170; R&D systems,), total VEGFReceptor1 (R&D systems, #AF321), FoxM1 (R&D systems, #AF3975), and GAPDH (#G8795; Sigma Aldrich). Blots were incubated with HRP-conjugated secondary antibodies followed by enhanced chemiluminescence (ECL) detection. Images were captured using a Syngene G Box digital imager (Frederick, Md.) and results were quantified with densitometry as previously described (Blanchard et al. 2018).

[9] = test system: IRE-1, ATF6, phospho-PERK protein; experiment: Immunoblotting of ER stress markers in HT-29 and HCT-15 cell lysates; type: cell-based, human; details: 5-FU treatment group; except IRE-1 protein level in HT-29
Protocol: as §7, §10

[10] = test system: VEGF165, VEGF189, VEGF receptor1, VEGF Receptor2, FoxM1, PTTG1 mRNA; experiment: qRT-PCR of angiogenic signaling molecules in HT-29 and HCT-15 cells; type: cell-based, human
Protocol: as §9, §8

[11] = cited from earlier work
[12] = test system: HT-29; details: HT-29, previous studies (Lim et al. 2007); read-out: IC50 dose of 5-FU; cited from earlier work
[13] = test system: HCT-15; details: HCT-15, previous studies (Lim et al. 2007); read-out: IC50 dose of 5-FU; cited from earlier work
[14] = test system: CRC; details: previous studies; read-out: IC50 value of MLT for CRC; cited from earlier work

In the case of C=C1CC[C@@H]2[C@](C)(CO)[C@H](O)CC[C@@]2(C)[C@@H]1C/C=C1/C(=O)OC[C@H]1O [AGP, andrographolide], the Ki-67 expression [1] is reported as “greatly reduced”, the “dose achieving maximum cell death (near 0% cell viability)” value ([2]; 48 h) is reported as 150 µM and the IC50 ([2]; 24 h (stated consistent with 48 h), read-out: IC50 value of AGP) is reported as 30 µM. The IC50 ([2]; AGP single dose, 48 h, read-out: IC50 values) was 30 µM, the “potency of AGP relative to MLT (basis of 1:20 ratio)” value ([2]; from maximum cell death doses) was 20 times and the “CHOP mRNA expression” value [3] was “Significant CHOP mRNA expression”. The “potency of AGP relative to MLT” value ([4]; HT-29, dose-effect curve) was 40 fold, the IC50 [4] was 25.6 µM and the “potency of AGP relative to MLT” value ([5]; HCT-15, dose-effect curve) was 26 fold. For the same molecule, the IC50 [5] was 26.5 µM, the IC50 ([6]; 48 h, published results, read-out: IC50 value for AGP as a single therapy) was 45 µM and the IC50 ([6]; T84 and Colo 205, previous study, read-out: IC50 value of AGP) was 45 µM. The “Cyclin B1 expression, AGP alone” value [7] was “suppresses”.

With O=c1[nH]cc(F)c(=O)[nH]1 [5-FU, 5-Fluorouracil] the FoxM1 protein [8] was “No further reduction”, the “phospho-VEGF receptor1 protein” value [8] was “No further reduction” and the “ER stress marker protein expression” value [9] was “No significant changes”. For the same molecule, the “FoxM1 mRNA level” value [10] was “no more significant reduction”, the “PTTG1 mRNA level” value [10] was “no more significant reduction” and the mVEGF165 level ([10]; both cell lines, vs untreated) was “increased”. The mVEGF189 level ([10]; both cell lines, vs untreated) was “increased”, the “overall response rate to 5-FU in adjuvant treatment” value ([11]; adjuvant treatment) was “less than 15%” and the “overall response of 5-FU in advanced CRC” value ([11]; advanced CRC) was “about 10%”. For the same molecule, the IC50 [12] was 13 µM, the IC50 [13] was roughly 5 µM and the “ATF6 mRNA expression” value ([3]; HCT-15) was “induced significant”. For the same molecule, the “IRE-1 mRNA expression” value ([3]; HT-29 and HCT-15) was “induced significant” and the “CHOP mRNA expression” value [3] was “attenuated”.

In the case of COc1ccc2[nH]cc(CCNC(C)=O)c2c1 [MLT, melatonin], the Ki-67 expression [1] is reported as “greatly reduced”, the “cell number at 24 h” value ([2]; 24 h) is reported as “transient increase in the cell number” and the “dose achieving maximum cell death (near 0% cell viability)” value ([2]; 48 h) is reported as 3000 µM. The IC50 ([2]; MLT single dose, 48 h, read-out: IC50 values) was 1000 µM, the IC50 [14] was 1000 to 2500 µM and the IC50 [4] was 1000 µM. The IC50 [5] was 683 µM.
